Measurements from patent publication US6897244B2, “Dihydronootkatone and tetrahydronootkatone as repellents to arthropods” (Board of Supervisors of Louisiana State University and …, priority 2002, dated 2005).

Tests used:
[1] = test system: Formosan subterranean termites; experiment: Petri dish treated/untreated sand bioassay for repelling activity against termites; format: in vivo, Coptotermes formosanus; design: key to percent of termites on untreated sand vs expected value of 50% (Chi-Square, p≦0.05): “−” indicates the test was not significantly different from the expected value; “+” indicates the test was significantly different from the expected value
Description: A carton nest (colony A) of Formosan subterranean termites was collected in Algiers, Louisiana in November 1997, and held in 250-liter cans. The cans were filled with pine as a food source, and kept at a temperature range of 24-26° C. Moistened corrugated cardboard rolls were used to retrieve termites from the cans. Once the termites migrated to the cardboard rolls, they were gently knocked from the cardboard rolls into clean rectangular plastic trays (40 cm×50 cm). Retrieved termites were isolated from debris by allowing them to cling to sheets of moistened paper towels. The average weight of each termite was 1.21 mg.
To test for effectiveness of nootkatone, 1,10-dihydronootkatone and tetrahydronootkatone in repelling termites, a bioassay was conducted using Petri dishes (5 cm diameter and 1 cm height). To ensure adequate moisture for the termites, 1 ml of a hot agar solution (1.5% in H2O) was spread on the bottom of the Petri dish. After the agar cooled, sand that was treated as described below was spread on the bottom of the Petri dish. For the treated sand, purified 1,10-dihydronootkatone or tetrahydronootkatone were dissolved in 2 ml ethanol, and then diluted to achieve final concentrations of 1, 2, 5, 12.5, 25, 50, and 100 μg/g sand. The solution was mixed with 1 g sand that had been autoclaved and cooled. The control sand was autoclaved sand with only 200 μl ethanol added. One half of the surfaces in the Petri dishes were covered with 1 g treated sand, and the other half with 1 g untreated sand.
The prepared Petri dishes were then used to evaluate the repelling activity against Formosan subterranean termites. Ten worker termites were added to each Petri dish, and the dishes were covered to eliminate light. Five replicate dishes were tested for each concentration and for the control. Termite position was recorded every 15 min during the first hour of testing by counting the number of termites observed on untreated sand. After the first hour, termite position was recorded each hour for 3 hr.
Differences between the percent of termites on untreated sand and an expected value were statistically analyzed by a Chi-Square analysis, using an expected value of 50% and a significance level of p≦0.05.

ticks = settings: previously discovered, U.S. Ser. No. 09/932,555; cited from earlier work
fleas = settings: previously demonstrated, U.S. Ser. No. 09/932,555; cited from earlier work
ants = settings: previously discovered, U.S. Ser. No. 09/932,555; cited from earlier work
cockroaches = settings: previously discovered, U.S. Ser. No. 09/932,555; cited from earlier work

C=C(C)C1CCC2=CC(=O)CC(C)C2(C)C1 (centres unmarked) [Nootkatone, 4,4a,5,6,7,8-hexahydro-6-isopropenyl-4,4a-dimethyl-2(3H)-naphthalenone]
−: percent of termites on untreated sand vs expected value of 50% (Chi-Square, p≦0.05) ([1]; 2 μg/dish, 0.25 hour) | percent of termites on untreated sand vs expected value of 50% (Chi-Square, p≦0.05) ([1]; 2 μg/dish, 0.5 hour) | percent of termites on untreated sand vs expected value of 50% (Chi-Square, p≦0.05) ([1]; 2 μg/dish, 0.75 hour) | percent of termites on untreated sand vs expected value of 50% (Chi-Square, p≦0.05) ([1]; 2 μg/dish, 1 hour) | percent of termites on untreated sand vs expected value of 50% (Chi-Square, p≦0.05) ([1]; 2 μg/dish, 2 hour) | percent of termites on untreated sand vs expected value of 50% (Chi-Square, p≦0.05) ([1]; 2 μg/dish, 3 hour) | percent of termites on untreated sand vs expected value of 50% (Chi-Square, p≦0.05) ([1]; 5 μg/dish, 0.25 hour) | percent of termites on untreated sand vs expected value of 50% (Chi-Square, p≦0.05) ([1]; 5 μg/dish, 0.5 hour) | percent of termites on untreated sand vs expected value of 50% (Chi-Square, p≦0.05) ([1]; 5 μg/dish, 0.75 hour) | percent of termites on untreated sand vs expected value of 50% (Chi-Square, p≦0.05) ([1]; 5 μg/dish, 1 hour) | percent of termites on untreated sand vs expected value of 50% (Chi-Square, p≦0.05) ([1]; 5 μg/dish, 2 hour) | percent of termites on untreated sand vs expected value of 50% (Chi-Square, p≦0.05) ([1]; 5 μg/dish, 3 hour) | percent of termites on untreated sand vs expected value of 50% (Chi-Square, p≦0.05) ([1]; 12.5 μg/dish, 0.25 hour) | percent of termites on untreated sand vs expected value of 50% (Chi-Square, p≦0.05) ([1]; 12.5 μg/dish, 0.5 hour) | percent of termites on untreated sand vs expected value of 50% (Chi-Square, p≦0.05) ([1]; 12.5 μg/dish, 0.75 hour) | percent of termites on untreated sand vs expected value of 50% (Chi-Square, p≦0.05) ([1]; 12.5 μg/dish, 1 hour) | percent of termites on untreated sand vs expected value of 50% (Chi-Square, p≦0.05) ([1]; 12.5 μg/dish, 2 hour) | percent of termites on untreated sand vs expected value of 50% (Chi-Square, p≦0.05) ([1]; 12.5 μg/dish, 3 hour) | percent of termites on untreated sand vs expected value of 50% (Chi-Square, p≦0.05) ([1]; 25 μg/dish, 0.25 hour) | percent of termites on untreated sand vs expected value of 50% (Chi-Square, p≦0.05) ([1]; 25 μg/dish, 0.5 hour) | percent of termites on untreated sand vs expected value of 50% (Chi-Square, p≦0.05) ([1]; 25 μg/dish, 0.75 hour) | percent of termites on untreated sand vs expected value of 50% (Chi-Square, p≦0.05) ([1]; 25 μg/dish, 1 hour) | percent of termites on untreated sand vs expected value of 50% (Chi-Square, p≦0.05) ([1]; 25 μg/dish, 2 hour) | percent of termites on untreated sand vs expected value of 50% (Chi-Square, p≦0.05) ([1]; 25 μg/dish, 3 hour) | percent of termites on untreated sand vs expected value of 50% (Chi-Square, p≦0.05) ([1]; 50 μg/dish, 0.5 hour) | percent of termites on untreated sand vs expected value of 50% (Chi-Square, p≦0.05) ([1]; 50 μg/dish, 0.75 hour) | percent of termites on untreated sand vs expected value of 50% (Chi-Square, p≦0.05) ([1]; 50 μg/dish, 2 hour) | percent of termites on untreated sand vs expected value of 50% (Chi-Square, p≦0.05) ([1]; 50 μg/dish, 3 hour)
100 μg/dish: concentration required for a significant effect of the treated sand on termite distribution ([1]; time periods greater than 1 hr)
significant repellent and toxicant: activity against ticks (ticks) | activity against ants (ants)
not affected: effect on fleas (fleas)
repellent: activity against cockroaches (cockroaches)
+: percent of termites on untreated sand vs expected value of 50% (Chi-Square, p≦0.05) ([1]; 50 μg/dish, 0.25 hour) | percent of termites on untreated sand vs expected value of 50% (Chi-Square, p≦0.05) ([1]; 50 μg/dish, 1 hour) | percent of termites on untreated sand vs expected value of 50% (Chi-Square, p≦0.05) ([1]; 100 μg/dish, 0.25 hour) | percent of termites on untreated sand vs expected value of 50% (Chi-Square, p≦0.05) ([1]; 100 μg/dish, 0.5 hour) | percent of termites on untreated sand vs expected value of 50% (Chi-Square, p≦0.05) ([1]; 100 μg/dish, 0.75 hour) | percent of termites on untreated sand vs expected value of 50% (Chi-Square, p≦0.05) ([1]; 100 μg/dish, 1 hour) | percent of termites on untreated sand vs expected value of 50% (Chi-Square, p≦0.05) ([1]; 100 μg/dish, 2 hour) | percent of termites on untreated sand vs expected value of 50% (Chi-Square, p≦0.05) ([1]; 100 μg/dish, 3 hour)
